These results are taken from ChEMBL document CHEMBL3112399, “Discovery of pyrazolo[3,4-d]pyrimidine derivatives as GPR119 agonists” (Bioorg Med Chem Lett, 2014).

Values after ≈ are worked out from the molar mass of the structure shown. Active and inactive are the calls of the source. No cut-off for these calls is given here.

One data set has as its target Cytochrome P450 3A4 (Homo sapiens, UniProt P08684). In words: Inhibition of CYP3A4 (unknown origin). The format is ADME.
The target in another data set is Cytochrome P450 2C9 (Homo sapiens, UniProt P11712). In words: Inhibition of CYP2C9 (unknown origin). The format is ADME.
Cytochrome P450 2C9, sequence (P11712 whole entry): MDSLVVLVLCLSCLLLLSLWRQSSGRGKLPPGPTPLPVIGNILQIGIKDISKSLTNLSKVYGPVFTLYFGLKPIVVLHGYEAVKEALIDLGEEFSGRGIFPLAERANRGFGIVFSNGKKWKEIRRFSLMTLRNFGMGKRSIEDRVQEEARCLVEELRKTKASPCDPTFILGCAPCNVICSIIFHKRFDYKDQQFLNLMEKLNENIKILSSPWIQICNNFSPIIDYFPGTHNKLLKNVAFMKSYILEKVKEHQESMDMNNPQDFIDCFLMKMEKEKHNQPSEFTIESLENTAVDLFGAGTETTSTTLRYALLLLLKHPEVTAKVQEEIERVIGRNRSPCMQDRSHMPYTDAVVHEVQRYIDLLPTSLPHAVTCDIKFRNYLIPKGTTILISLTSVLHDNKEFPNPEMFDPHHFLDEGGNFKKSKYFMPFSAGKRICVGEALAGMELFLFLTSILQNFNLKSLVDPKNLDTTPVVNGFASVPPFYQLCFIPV
The subject of another data set is HIT-T15. In words: Agonist activity at GPR119 receptor in hamster HIT-T15 cells assessed as intracellular cAMP level relative to AR-231,453. The format is cell-based. The note with it: Cricetinae.
The test system of another data set is Mus musculus. In words: Antihyperglycemic activity in C57Bl/6J mouse assessed as reduction of AUC (0 to 120 mins) of glucose excursion at 30 mg/kg, po administered 2 hrs before glucose challenge. The format is functional.
Data set [1] is described as follows: Clearance in mouse liver microsomes. The note with it: read-out: CLH. The format is ADME, Microsome. (In general: Liver microsomes are a subcellular fraction often used to study metabolism.)
Another data set deals with hERG (KCNH2) (Homo sapiens, UniProt Q12809). In words: Inhibition of human ERG channel.
hERG (KCNH2), sequence (Q12809 whole entry): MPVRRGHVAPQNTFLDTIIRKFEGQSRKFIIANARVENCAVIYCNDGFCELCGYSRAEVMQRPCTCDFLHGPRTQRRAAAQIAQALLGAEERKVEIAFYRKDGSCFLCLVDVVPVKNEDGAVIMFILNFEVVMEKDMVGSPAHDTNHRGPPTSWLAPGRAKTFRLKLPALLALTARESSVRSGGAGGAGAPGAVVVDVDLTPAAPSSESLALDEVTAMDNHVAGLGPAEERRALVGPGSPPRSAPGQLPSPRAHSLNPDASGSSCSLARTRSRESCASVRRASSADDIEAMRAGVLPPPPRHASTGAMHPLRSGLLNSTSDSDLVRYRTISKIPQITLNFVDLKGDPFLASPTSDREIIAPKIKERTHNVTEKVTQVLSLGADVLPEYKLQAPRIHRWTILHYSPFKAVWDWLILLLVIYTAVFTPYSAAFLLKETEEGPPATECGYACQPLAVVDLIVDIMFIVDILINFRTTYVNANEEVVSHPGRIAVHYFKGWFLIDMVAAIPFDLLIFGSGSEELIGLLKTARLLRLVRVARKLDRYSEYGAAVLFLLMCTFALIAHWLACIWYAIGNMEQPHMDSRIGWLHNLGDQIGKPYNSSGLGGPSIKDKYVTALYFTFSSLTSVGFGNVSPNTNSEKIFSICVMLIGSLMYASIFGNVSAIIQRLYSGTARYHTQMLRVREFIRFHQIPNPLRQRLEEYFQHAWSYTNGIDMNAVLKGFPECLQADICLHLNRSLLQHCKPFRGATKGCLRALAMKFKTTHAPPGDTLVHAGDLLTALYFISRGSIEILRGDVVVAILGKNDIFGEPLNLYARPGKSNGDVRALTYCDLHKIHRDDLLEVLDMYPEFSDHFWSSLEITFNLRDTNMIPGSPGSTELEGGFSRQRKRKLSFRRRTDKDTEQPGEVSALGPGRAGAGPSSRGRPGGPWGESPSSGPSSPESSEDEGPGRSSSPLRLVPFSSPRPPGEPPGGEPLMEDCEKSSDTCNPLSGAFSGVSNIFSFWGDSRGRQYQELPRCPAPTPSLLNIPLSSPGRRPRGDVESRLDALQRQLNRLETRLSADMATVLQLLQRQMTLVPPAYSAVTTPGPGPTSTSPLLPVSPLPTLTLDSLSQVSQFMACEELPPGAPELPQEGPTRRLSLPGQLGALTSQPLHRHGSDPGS
Data set [2] is described as follows: Kinetic solubility of the compound at pH 6.5. The format is physicochemical. The note with it: buffer, read-out: Kinetic_solubility.
Data set [3] can be described thus: Agonist activity at GPR119 receptor in hamster HIT-T15 cells assessed as intracellular cAMP level. The format is cell-based. The note with it: Cricetinae.
Data set [4] can be described thus: Oral bioavailability in mouse at 10 mg/kg. The format is ADME, organism-based. The conditions noted are these: in vivo.
The subject of a further data set is Hepatocyte. In words: Metabolic stability of the compound in mouse hepatocytes assessed as glutathione adduct formation. The format is ADME, cell-based.
Data set [5] in a line: Volume of distribution in mouse at 5 mg/kg, iv. The note with it: in vivo. The format is ADME, organism-based. Also noted: dose 5 mg/kg, route intravenous.
Data set [6] in a line: AUC in mouse at 5 mg/kg, iv. The format is ADME, organism-based. Also noted: dose 5 mg/kg, route intravenous. The conditions noted are these: plasma.
Data set [7] in a line: Clearance in mouse at 5 mg/kg, iv. The format is ADME, organism-based. The note with it: in vivo. Also noted: dose 5 mg/kg, route intravenous.
Data set [8] can be described thus: Half life in mouse at 5 mg/kg, iv. The note with it: in vivo. Also noted: dose 5 mg/kg, route intravenous. The format is ADME, organism-based.
Data set [9] is described as follows: Tmax in mouse at 10 mg/kg, po. The format is ADME, organism-based. Also noted: dose 10 mg/kg, route oral. The note with it: in vivo.
Data set [10] is described as follows: Cmax in mouse at 10 mg/kg, po. The format is ADME, organism-based. Also noted: dose 10 mg/kg, route oral. The note with it: in vivo.
Data set [11] in a line: AUC in mouse at 10 mg/kg, po. The format is ADME, organism-based. Further details: dose 10 mg/kg, route oral. The conditions noted are these: plasma.

Cytochrome P450 3A4, sequence (P08684 whole entry): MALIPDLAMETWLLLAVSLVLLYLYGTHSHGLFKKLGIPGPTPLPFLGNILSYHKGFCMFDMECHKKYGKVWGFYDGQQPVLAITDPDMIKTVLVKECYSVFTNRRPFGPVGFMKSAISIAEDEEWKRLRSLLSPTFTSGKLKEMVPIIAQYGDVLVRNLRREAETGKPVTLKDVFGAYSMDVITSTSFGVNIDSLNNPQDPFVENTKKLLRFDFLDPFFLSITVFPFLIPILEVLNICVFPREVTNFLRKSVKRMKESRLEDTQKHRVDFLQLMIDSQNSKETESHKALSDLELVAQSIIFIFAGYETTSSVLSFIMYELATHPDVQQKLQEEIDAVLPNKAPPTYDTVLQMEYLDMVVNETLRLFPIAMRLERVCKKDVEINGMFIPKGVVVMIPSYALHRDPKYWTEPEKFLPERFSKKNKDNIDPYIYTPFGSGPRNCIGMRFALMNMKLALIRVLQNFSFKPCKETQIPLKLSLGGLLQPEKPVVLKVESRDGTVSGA

A word on the IC50: it is the midpoint of a concentration-inhibition curve. What is called Emax is the maximal effect, on the per cent scale that the assay sets. Usually IC20 stands for the concentration needed for an effect of 20%. One may read the EC50 as the concentration at which the effect is half-maximal. Turning to `CC(C)(C)OC(=O)N1CCC(n2ncc3c(Oc4ccc(S(C)(=O)=O)cc4)ncnc32)CC1`, the results for the IC50 at Cytochrome P450 3A4 and against Cytochrome P450 2C9 were 3100 nM and more than 3000 nM, respectively. The maximal effect (Emax) in the data set with HIT-T15 was found to be 101%. Besides, the result in the data set on Mus musculus was inactive. For the same compound, the microsomal CLint in data set [1] came out at 86 µL/min/mg. Also, the 20% effect level against hERG (KCNH2) (IC20) was put at 2700 nM. For the same compound, in data set [2], the solubility kinetic was less than 1 µg/mL. The EC50 in [3] is 43 nM.

In the case of `CS(=O)(=O)c1ccc(Nc2ncnc3c2cnn3C2CCN(Cc3ccccc3)CC2)cc1`, the maximal response (Emax) in the data set on HIT-T15 was found to be 64%. In [3], the EC50 was 19000 nM.

As to `CC(C)(C)OC(=O)N1CCC(n2ncc3c(Nc4ccc(S(C)(=O)=O)cc4)ncnc32)CC1`, in the data set on HIT-T15, the Emax stood at 105%. Moreover, in [3], the EC50 is 1400 nM.

On to `CS(=O)(=O)c1ccc(Oc2ncnc3c2cnn3C2CCN(Cc3ccc(F)cc3)CC2)cc1`, for which, in the data set with HIT-T15, the Emax was determined as 69%. Moreover, the EC50 in [3] is 200 nM.

Take `CS(=O)(=O)c1ccc(Oc2ncnc3c2cnn3C2CCN(Cc3ccc(C(F)(F)F)cc3)CC2)cc1`: the IC50 is 1800 nM at Cytochrome P450 3A4 and more than 6000 nM against Cytochrome P450 2C9. Further, the Emax in the data set with HIT-T15 is 59%. Also, the microsomal CLint in data set [1] came to 114 µL/min/mg. Moreover, the IC20 against hERG (KCNH2) turned out to be 200 nM. Further, the solubility kinetic in data set [2] was less than 1 µg/mL. Also, the EC50 in [3] is 36 nM.

As for `CS(=O)(=O)c1ccc(Oc2ncnc3c2cnn3C2CCN(C(=O)CCc3ccccc3)CC2)cc1`, the Emax with HIT-T15 is 94%. Besides, the EC50 in data set [3] worked out at 1000 nM.

Regarding `CC(C)OC(=O)N1CCC(n2ncc3c(Nc4ccc(S(C)(=O)=O)cc4)ncnc32)CC1`, the maximal effect (Emax) in the data set with HIT-T15 came out at 92%. Also, the EC50 in data set [3] was 5740 nM.

As to `CC(C)C(=O)N1CCC(n2ncc3c(Oc4ccc(S(C)(=O)=O)cc4)ncnc32)CC1`, the Emax in the data set on HIT-T15 is 60%. Also, in [3], the EC50 came to 990 nM.

In general, bioavailability refers to the share of a dose that reaches the circulation, judged against a reference dose that is usually intravenous. For orientation: Vd means the apparent volume that relates the amount in the body to the concentration in plasma or blood. In general, AUC refers to concentration integrated over time. What is called clearance is the volume of plasma or blood freed of the substance per unit of time. For orientation: half-life means the time in which the quantity being followed falls by half. The term Tmax denotes the time at which the peak concentration occurs. Broadly, the Cmax is the maximum level reached in the sampled fluid or tissue. On to `CC(C)OC(=O)N1CCC(n2ncc3c(Oc4ccc(S(C)(=O)=O)cc4)ncnc32)CC1`, for which the IC50 against Cytochrome P450 3A4 and against Cytochrome P450 2C9 was more than 6000 nM each time. The compound also had a bioavailability in data set [4] of 82%. In addition, the Stability entry with Hepatocyte is given as “Unstable”. Besides, the Vd in data set [5] worked out at 0.46 L/kg. In the data set on HIT-T15, the Emax was 92%. Further, in the data set on Mus musculus, the Activity was determined as 44%. Besides, the AUC in data set [6] was determined as 25300 ng·h/mL; in data set [11], 41300 ng·h/mL. The microsomal CLint in data set [1] is 85 µL/min/mg. This compound came in with an IC20 against hERG (KCNH2) of 500 nM. This compound showed a clearance in data set [7] of 3.3 mL/min/kg. In data set [8], this compound gave a half-life of 1.6 h. For the same compound, in [9], the Tmax was found to be 4 h. Moreover, the peak level in data set [10] (Cmax) was 13.2 µM. Moreover, the solubility kinetic in data set [2] was less than 1 µg/mL. Further, the EC50 in data set [3] is 150 nM.

For the compound `CC(C)CC(=O)N1CCC(n2ncc3c(Oc4ccc(S(C)(=O)=O)cc4)ncnc32)CC1`, the half-inhibitory concentration (IC50) at Cytochrome P450 3A4 and on Cytochrome P450 2C9 was more than 25000 nM in each case. In addition, the Emax with HIT-T15 turned out to be 59%. In addition, in [1], the microsomal CLint worked out at 29 µL/min/mg. Further, at hERG (KCNH2), it took 2700 nM to reach the 20% level (IC20). Further, the solubility kinetic in data set [2] came out at 32 µg/mL (≈ 69.9 µM). In addition, the EC50 in data set [3] was 330 nM.

For `CC(C)(C)OC(=O)N1CCC(n2ncc3c(Oc4ccc(C(C)(C)C)cc4)ncnc32)CC1`, in the data set with HIT-T15, the Emax worked out at 13%. For the same compound, the EC50 in data set [3] was more than 25000 nM.

In the case of `CC(C)(C)COC(=O)N1CCC(n2ncc3c(Oc4ccc(S(C)(=O)=O)cc4)ncnc32)CC1`, in the data set with HIT-T15, the Emax turned out to be 93%. In addition, the EC50 in data set [3] stood at 100 nM.

Consider `CS(=O)(=O)c1ccc(Oc2ncnc3c2cnn3C2CCN(Cc3cccc(Cl)c3)CC2)cc1`, for which the Emax with HIT-T15 turned out to be 83%. The EC50 in data set [3] was found to be 280 nM.

Take `CC(C)(C)OC(=O)N1CCC(n2ncc3c(Oc4ccc(C#N)cc4)ncnc32)CC1`: the Emax in the data set with HIT-T15 amounted to 87%. The 50% effective concentration (EC50) in data set [3] turned out to be 580 nM.

For `CCOC(=O)N1CCC(n2ncc3c(Oc4ccc(S(C)(=O)=O)cc4)ncnc32)CC1`, the Emax in the data set on HIT-T15 was determined as 81%. The EC50 in data set [3] turned out to be 650 nM.

Consider `CS(=O)(=O)c1ccc(Oc2ncnc3c2cnn3C2CCN(Cc3cccc(OC(F)(F)F)c3)CC2)cc1`, for which the Emax in the data set with HIT-T15 was 54%. The EC50 in data set [3] worked out at 120 nM.

For the compound `CC(C)(C)OC(=O)N1CCC(n2ncc3c(Oc4ccc(F)cc4)ncnc32)CC1`, the Emax in the data set with HIT-T15 was 82%. Also, the EC50 in [3] is 540 nM.

Consider `CC(C)(C)OC(=O)N1CCC(n2ncc3c(Oc4ccccc4)ncnc32)CC1`, for which the Emax in the data set with HIT-T15 came out at 30%. Also, the concentration for a half-maximal effect (EC50) in data set [3] was more than 25000 nM.

With `CC(C)(C)OC(=O)N1CCC(n2ncc3c(Oc4ccccc4C#N)ncnc32)CC1`, the EC50 in [3] turned out to be 61 nM.

Regarding `CS(=O)(=O)c1ccc(Oc2ncnc3c2cnn3C2CCN(Cc3ccccc3)CC2)cc1`, the Emax in the data set on HIT-T15 stood at 87%. For the same compound, the EC50 in [3] was 580 nM.

`CC(C)(C)OC(=O)N1CCC(n2ncc3c(Oc4ccc(C(F)(F)F)cc4)ncnc32)CC1`: in the data set with HIT-T15, the Emax was determined as 27%. The EC50 in data set [3] is more than 25000 nM.

`CC(C)(C)OC(=O)N1CCC(n2ncc3c(Nc4cc(F)c(F)cc4F)ncnc32)CC1`: the Emax in the data set on HIT-T15 came out at 97%. The EC50 in data set [3] stood at 530 nM.

As to `CC(C)(C)OC(=O)N1CCC(n2ncc3c(Nc4ccc(S(C)(=O)=O)cc4F)ncnc32)CC1`, the IC50 on Cytochrome P450 2C9 was determined as 900 nM. Besides, the Emax in the data set on HIT-T15 is 103%. Besides, in data set [1], the microsomal CLint is 70 µL/min/mg. Also, on hERG (KCNH2), it took 2600 nM to reach the 20% level (IC20). The solubility kinetic in data set [2] stood at 8 µg/mL (≈ 16.3 µM). Further, the EC50 in data set [3] was found to be 240 nM.

On to `CC(C)(C)OC(=O)N1CCC(n2ncc3c(Oc4cc(F)c(F)cc4F)ncnc32)CC1`, for which the Emax in the data set on HIT-T15 worked out at 95%. Besides, in data set [3], the EC50 was 88 nM.

For `CC(C)COC(=O)N1CCC(n2ncc3c(Oc4ccc(S(C)(=O)=O)cc4)ncnc32)CC1`, the Emax in the data set on HIT-T15 stood at 84%. The EC50 in data set [3] was found to be 110 nM.

On to `CS(=O)(=O)c1ccc(Oc2ncnc3c2cnn3C2CCN(Cc3ccc(Cl)cc3)CC2)cc1`, for which the Emax in the data set on HIT-T15 is 73%. In data set [3], the EC50 amounted to 570 nM.

Turning to `CC(C)(C)OC(=O)N1CCC(n2ncc3c(Oc4cccc(C(C)(C)C)c4)ncnc32)CC1`, the Emax in the data set on HIT-T15 is 27%. Further, the 50% effective concentration (EC50) in data set [3] was more than 25000 nM.

On to `CC(=O)c1ccc(Oc2ncnc3c2cnn3C2CCN(C(=O)OC(C)(C)C)CC2)cc1`, for which the Emax with HIT-T15 is 83%. Moreover, the EC50 in [3] is 160 nM.

As to `CC(C)(C)OC(=O)N1CCC(n2ncc3c(Oc4ccccc4F)ncnc32)CC1`, in the data set with HIT-T15, the Emax was 107%. The EC50 in data set [3] turned out to be 190 nM.

`CC(C)(C)CC(=O)N1CCC(n2ncc3c(Oc4ccc(S(C)(=O)=O)cc4)ncnc32)CC1`: the Emax in the data set with HIT-T15 was found to be 58%. Further, in [3], the EC50 was found to be 270 nM.

Regarding `CS(=O)(=O)c1ccc(Oc2ncnc3c2cnn3C2CCN(C(=O)OCC(Cl)(Cl)Cl)CC2)cc1`, the maximal effect (Emax) in the data set on HIT-T15 is 90%. Also, the EC50 in data set [3] worked out at 18 nM.

With `COc1cc(OC)cc(Oc2ncnc3c2cnn3C2CCN(C(=O)OC(C)(C)C)CC2)c1`, the Emax in the data set on HIT-T15 came to 34%. Besides, the EC50 in [3] is 6400 nM.
